According to patent publication US7470715B2, “Estrogen modulators” (Pfizer Inc., priority 2005, dated 2008):

Columns and labels:
[1] = biological target: T1, ligand binding domain of the estrogen receptor alpha chain (ERαLBD) (Homo sapiens, UniProt P03372); assay: ER agonist cell assay (ERα), Huh-7 co-transfection, luciferase; format: cell-based; conditions: for ERα % of Max E2 Response: percent of the maximum estradiol fold change, Huh-7, pG5luc and ERαLBD; for EC50: Huh-7 cells co-transfected with pG5luc and ERαLBD, overnight incubation, luciferase
T1 construct: expressed in transfected cells; host or cells: Huh-7 human hepatoma cells, transient transfection with FuGENE 6
T1 sequence (P03372 311-547 limits assumed): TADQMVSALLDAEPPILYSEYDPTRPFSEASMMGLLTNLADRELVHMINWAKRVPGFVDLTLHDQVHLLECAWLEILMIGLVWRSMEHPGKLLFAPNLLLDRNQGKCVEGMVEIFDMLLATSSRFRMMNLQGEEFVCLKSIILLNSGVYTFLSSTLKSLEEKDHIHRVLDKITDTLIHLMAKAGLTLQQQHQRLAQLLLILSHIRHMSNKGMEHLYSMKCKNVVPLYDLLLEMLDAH
Experimental: (§1) The compounds ability to mimic the effects of estrogen on the estrogen receptor were determined in a whole cell assay as described immediately below.
(§2) Experimental Procedure for ER Agonist Cell Assay
(§3) • Cell line and plasmids: The human hepatoma cell line Huh-7 was used for co-transfections. Cells were maintained in culture medium and split when they reached 80-90% confluency. Three plasmids were routinely used in the assay. pG5luc contained the firefly luciferase gene and was obtained from Promega. […] Cell Culture Media and Reagents:
(§4) Culture medium: DMEM (phenol red free), 10% charcoal treated HyClone serum, 1% L-glutamine, and 1% penicillin/streptomycin
(§5) Transfection medium: DMEM (phenol red free) and 10% charcoal treated HyClone serum
(§6) Luciferase reagents: Dual-Glo Luciferase Kit (Promega cat #E2980) was used for determination of luciferase activity.
(§7) Transient transfections were preformed using the lipophilic reagent FuGENE 6 (Roche). Cells were split and seeded at 7.2×10^6/150 cm^2 flask in 20 mL of transfection medium. 5-6 hrs later cells were co-transfected with either pG5luc and ERαLBD or pG5luc and ERβLBD(pm418). Transfected cells grew overnight and were then used the next day.
(§8) Cells transfected 24 hrs earlier were harvested, counted, and seeded in wells containing compound at a density of 1×10^4 cells/well. […] Cells were incubated overnight at 37° C. and 5% CO2 in the presence of compound. The following day medium was aspirated from the wells and 100 ul of Dual-Glo™ Luciferase Reagent were added to each well. Plates were incubated at room temperature for 20 minutes and firefly luminescence was measured on a luminometer. Next, 50 ul of Dual-Gbo™ Stop & Glo® Reagent were added to each well and after 20 minutes at room temperature the Renilla luminescence was measured on a luminometer. Values from each well were normalized by dividing the firefly luminescence by the Renilla luminescence. Estradiol was used as the standard and run in each assay. The fold induction over background for each compound was compared to the maximum fold induction for estradiol in each assay. […] Those compounds that were not tested, or the data was unavailable are marked as NT.

[2] = biological target: ligand binding domain of the estrogen receptor beta chain (ERβLBD) that contained a point mutation at amino acid residue 418 (pm418) (Homo sapiens, UniProt Q92731); assay: ER agonist cell assay (ERβ), Huh-7 co-transfection, luciferase; format: cell-based; conditions: for ERβ % of Max E2 Response: percent of the maximum estradiol fold change, Huh-7, pG5luc and ERβLBD(pm418); for EC50: Huh-7 cells co-transfected with pG5luc and ERβLBD(pm418), overnight incubation, luciferase
Experimental: as §1, §2, §3, §4, §5, §6, §7, §8

Row | Structure (SMILES) | ERα % of Max E2 Response [1] | ERβ % of Max E2 Response [2] | EC50 [1] | EC50 [2]
1 | Oc1ccc(-c2noc(C3(CNc4cccc(C(F)(F)F)c4)CC3)c2-c2ccccc2)cc1 [Example 29, 4-(4-Phenyl-5-{1-[(3-trifluoromethyl-phenylamino)-methyl]-cyclopropyl}-isoxazol-3-yl)-phenol] | 11.4% | 0.601% |  | 
2 | Oc1ccc(-c2noc(C3(CN4CCOCC4)CC3)c2-c2ccccc2)cc1 [Example 31, 4-[5-(1-Morpholin-4-ylmethyl-cyclopropyl)-4-phenyl-isoxazol-3-yl]-phenol] | 30% | 1.35% | 26.9 nM | 151 nM
3 | CC(=O)SCC1(c2onc(-c3ccc(O)cc3)c2-c2ccccc2)CC1 [Example 37, Thioacetic acid S-{1-[3-(4-hydroxy-phenyl)-4-phenyl-isoxazol-5-yl]-cyclopropylmethyl} ester] | 30.7% | 4.3% | 202 nM | 302 nM
4 | CSCC1(c2onc(-c3ccc(O)cc3)c2-c2ccccc2)CC1 [Example 38, 4-[5-(1-Methylsulfanylmethyl-cyclopropyl)-4-phenyl-isoxazol-3-yl]-phenol] | 11.4% | 6.6% | 1130 nM | 749 nM
5 | Oc1ccc(-c2noc(C3(CSc4ccccc4)CC3)c2-c2ccccc2)cc1 [Example 40, 4-[4-Phenyl-5-(1-phenylsulfanylmethyl-cyclopropyl)-isoxazol-3-yl]-phenol] | 39.5% | 1.12% | 107 nM | 139 nM
6 | N#CCC1(c2onc(-c3ccc(O)cc3)c2-c2ccccc2)CC1 [Example 42, {1-[3-(4-Hydroxy-phenyl)-4-phenyl-isoxazol-5-yl]-cyclopropyl}-acetonitrile] | 51.7% | 6.17% | 37.7 nM | 198 nM
7 | CC(=O)OCC1(c2onc(-c3ccc(O)cc3)c2-c2ccccc2)CC1 [Example 54] | 60.4% | 65.8% | 38.8 nM | 108 nM
8 | Cc1noc(C)c1C(=O)OCC1(c2onc(-c3ccc(O)cc3)c2-c2ccccc2)CC1 [Example 56] | 42.1% | 3% | 11.1 nM | 30.6 nM
9 | COCCOC(=O)C1(c2onc(-c3ccc(O)cc3)c2-c2ccccc2)CC1 [Example 88, 1-[3-(4-Hydroxy-phenyl)-4-phenyl-isoxazol-5-yl]-cyclopropanecarboxylic acid 2-methoxy-ethyl ester] | 29.2% | >3.41% | 29.4 nM | > 10000 nM
10 | O=C(OC1CCCC1)C1(c2onc(-c3ccc(O)cc3)c2-c2ccccc2)CC1 [Example 89, 1-[3-(4-Hydroxy-phenyl)-4-phenyl-isoxazol-5-yl]-cyclopropanecarboxylic acid cyclopentyl ester] | 26% | >2.93% | 30.5 nM | > 10000 nM

The next lines start with the values.

Row | ERα % of Max E2 Response [1] | ERβ % of Max E2 Response [2] | EC50 [1] | EC50 [2] | Structure (SMILES)
11 | 85.4% | 79% | 45.6 nM | 71.1 nM | COCC(=O)OCC1(c2onc(-c3ccc(O)cc3)c2-c2ccccc2)CC1 [Example 53]
12 | 55.8% | 32.6% | 5.7 nM | 23.6 nM | CC(C)CC(=O)OCC1(c2onc(-c3ccc(O)cc3)c2-c2ccccc2)CC1 [Example 55]
13 | 71.9% | 112% | 245 nM | 137 nM | CCC(=O)OCC1(c2onc(-c3ccc(O)cc3)c2-c2ccccc2)CC1 [Example 57]
14 | 59.9% | 92% | 137 nM | 97.9 nM | CCCC(=O)OCC1(c2onc(-c3ccc(O)cc3)c2-c2ccccc2)CC1 [Example 58]
